Results: ChEMBL document CHEMBL3870303, “Substituted conformationally restricted guanidine derivatives: Probing the α2-adrenoceptors' binding pocket” (Eur J Med Chem, 2016)
Active and inactive are the calls of the source. The rule behind the calls is not given here.

What was measured:
[1] = molecular target: T1, Adrenergic receptor alpha-2 (Homo sapiens, UniProt P08913+P18825+P18089); assay: Displacement of [3H]RX821002 from alpha-2 adrenergic receptor in human brain pre-frontal cortex neural membranes after 30 mins by liquid scintillation counting method
T1 sequence (P08913 whole entry): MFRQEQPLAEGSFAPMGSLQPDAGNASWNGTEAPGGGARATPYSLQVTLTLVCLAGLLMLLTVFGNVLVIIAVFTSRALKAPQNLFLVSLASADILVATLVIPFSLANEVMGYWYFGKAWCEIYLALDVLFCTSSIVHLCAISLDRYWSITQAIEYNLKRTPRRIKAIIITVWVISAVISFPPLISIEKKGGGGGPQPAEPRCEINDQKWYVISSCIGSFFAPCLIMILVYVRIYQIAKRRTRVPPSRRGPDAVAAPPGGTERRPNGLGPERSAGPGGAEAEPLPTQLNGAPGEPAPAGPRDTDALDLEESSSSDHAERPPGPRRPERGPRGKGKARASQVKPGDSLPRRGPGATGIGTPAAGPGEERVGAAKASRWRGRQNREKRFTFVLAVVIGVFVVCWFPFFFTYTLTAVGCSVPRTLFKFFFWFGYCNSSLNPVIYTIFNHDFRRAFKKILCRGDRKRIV
T1 sequence (P18825 whole entry): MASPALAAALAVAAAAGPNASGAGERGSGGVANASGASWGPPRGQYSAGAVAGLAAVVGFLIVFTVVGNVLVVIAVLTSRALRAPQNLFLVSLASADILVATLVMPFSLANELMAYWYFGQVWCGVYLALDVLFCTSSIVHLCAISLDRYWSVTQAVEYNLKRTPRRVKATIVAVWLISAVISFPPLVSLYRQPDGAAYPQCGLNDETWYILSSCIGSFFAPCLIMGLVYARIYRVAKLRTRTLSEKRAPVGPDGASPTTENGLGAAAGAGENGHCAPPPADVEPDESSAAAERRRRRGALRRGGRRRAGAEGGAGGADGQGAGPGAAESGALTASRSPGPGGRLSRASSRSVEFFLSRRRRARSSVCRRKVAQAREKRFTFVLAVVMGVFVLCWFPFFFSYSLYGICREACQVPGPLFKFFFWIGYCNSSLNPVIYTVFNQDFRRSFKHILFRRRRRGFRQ
T1 sequence (P18089 whole entry): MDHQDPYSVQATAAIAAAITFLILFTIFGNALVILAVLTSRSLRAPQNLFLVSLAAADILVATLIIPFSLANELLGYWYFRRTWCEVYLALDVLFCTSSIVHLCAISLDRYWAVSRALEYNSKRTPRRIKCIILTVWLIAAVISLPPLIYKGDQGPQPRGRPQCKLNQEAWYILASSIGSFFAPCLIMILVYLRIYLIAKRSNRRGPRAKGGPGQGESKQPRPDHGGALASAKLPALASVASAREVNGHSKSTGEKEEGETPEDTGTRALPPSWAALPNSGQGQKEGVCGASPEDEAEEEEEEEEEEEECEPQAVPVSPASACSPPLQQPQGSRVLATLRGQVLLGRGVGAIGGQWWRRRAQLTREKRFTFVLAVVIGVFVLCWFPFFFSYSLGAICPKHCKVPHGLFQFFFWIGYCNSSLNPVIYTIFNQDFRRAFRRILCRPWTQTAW

[2] = molecular target: Adrenergic receptor alpha-2 (Homo sapiens) (UniProt P08913+P18825+P18089); assay: Antagonist activity at alpha-2 adrenergic receptor in human brain prefrontal cortex neural membranes assessed as inhibition of [35S]GTPgammaS binding after 120 mins by liquid scintillation counting; format: functional, tissue-based

pKi [1]	inhibition [2]	SMILES
4.99		CN(C)c1ccc2c(c1)CCN=C(NCCO)N2
5.36		CN(C)c1ccc2c(c1)CCN=C(NCc1ccco1)N2
5.81		OCCNC1=NCCc2ccccc2N1
6.64	Active	c1ccc2c(c1)CCN=C(NCc1ccc3c(c1)OCO3)N2
6.14		CN(C)c1ccc2c(c1)CCN=C(NCc1ccc3c(c1)OCO3)N2
5.5		OCCNC1=NCCc2cc3c(cc2N1)OCO3

Second part, the molecule before the results:

SMILES	pKi [1]	inhibition [2]
OCCN1C(NCc2ccccc2)=NCc2cccnc21	5.07	
CCCN1C(N)=NCc2ccccc21	5.11	
c1ccc(CNC2=NCc3ccccc3N2c2ccccc2)cc1	4.92	
c1ccc(CNC2=NCc3ccccc3N2Cc2ccc3c(c2)OCO3)cc1	6.55	
COC1(C2=NCCN2)COc2ccccc2O1 (stereo not drawn)	8.85	
NC1=NCc2ccccc2N1c1ccccc1	5.85	
c1ccc(CNC2=NCc3cccnc3N2Cc2ccc3c(c2)OCO3)cc1	5.15	Active
CCCN1C(N)=NCc2cccnc21	4.99	
CCCN1C(NCc2ccccc2)=NCc2cccnc21	5.05	
CCCN1C(NCc2ccccc2)=NCc2ccccc21	5.29	
